Source: paper PMC11496704, “Synthesis and cytotoxicity studies of novel N-arylbenzo[h]quinazolin-2-amines” (Beilstein Journal of Organic Chemistry, 2024)

What follows are compounds tested on MCF7 (assay: Cytotoxicity secondary screen (IC50)). Details: Homo sapiens, 48 h exposure, mean of triplicates, NE: no effect.
Format: cell-based

| SMILES | IC50 [µM] |
| --- | --- |
| Clc1cccc(Nc2ncc3ccc4ccccc4c3n2)c1 [Compound 4l, N-(3-chlorophenyl)benzo[h]quinazolin-2-amine] | 18 |

The compounds below were run on HuH-7 (assay: Cytotoxicity secondary screen (IC50)). Details: Homo sapiens, 48 h exposure, mean of triplicates, NE: no effect.
Format: cell-based
Procedure: (§1) Cell culture. Skin normal fibroblastic cells are purchased from Lonza (Basel, Switzerland), HuH-7, Caco-2, MDA-MB-231, HCT-116, PC3, MCF7 and NCI-H727 cancer cell lines were obtained from ATCC (American Type Culture Collection). Cells are grown at 37 °C, 5% CO2 in ATCC recommended media: DMEM for HuH-7, MDA-MB-231, MDA-MB-468 and fibroblast, EMEM for MCF7 and CaCo-2, McCoy’s for HCT-116 and RPMI for PC3 and NCI-H727. All culture media are supplemented by 10% of FBS, 1% of penicillin-streptomycin and 2 mM glutamine.
(§2) Both studies have been performed following the protocols described in a previous paper, see ref. [2].

| SMILES | IC50 [µM] |
| --- | --- |
| Clc1cccc(Nc2ncc3ccc4ccccc4c3n2)c1 [Compound 4l, N-(3-chlorophenyl)benzo[h]quinazolin-2-amine] | 22 |

What follows are compounds tested on PC3 (assay: Cytotoxicity secondary screen (IC50)). Details: Homo sapiens, PC-3; 48 h exposure, mean of triplicates; NE: no effect.
Format: cell-based
Procedure: as §1, §2

| SMILES | IC50 [µM] |
| --- | --- |
| Clc1cccc(Nc2ncc3ccc4ccccc4c3n2)c1 [Compound 4l, N-(3-chlorophenyl)benzo[h]quinazolin-2-amine] | 26 |

The compounds below were run on normal human fibroblasts (assay: Cytotoxicity secondary screen (IC50)). Details: Fibroblast, 48 h exposure, mean of triplicates, NE: no effect, highest concentration tested 25 μM, read-out: IC50 Fibro.
Format: cell-based
Procedure: as §1, §2

| SMILES | IC50 [µM] |
| --- | --- |
| Clc1cccc(Nc2ncc3ccc4ccccc4c3n2)c1 [Compound 4l, N-(3-chlorophenyl)benzo[h]quinazolin-2-amine] | > 25 |

Each compound was assayed on Caco-2 (assay: Cytotoxicity secondary screen (IC50)). Details: Homo sapiens, 48 h exposure, mean of triplicates, NE: no effect.
Format: cell-based
Procedure: (§3) Next, we performed a cytotoxicity screening of the nineteen molecules 4a–s, at 25 μM, investigating seven representative cancer cell lines: hepatocellular carcinoma HuH-7, colorectal adenocarcinoma CaCo-2, breast carcinoma MDA-MB-231 and MDA-MB-468, colorectal carcinoma HCT-116, prostate carcinoma PC3 and breast carcinoma MCF7. […] For details see: ref. [2] and Supporting Information File 1, Table S1.
as §1, §2

| SMILES | IC50 [µM] |
| --- | --- |
| Clc1cccc(Nc2ncc3ccc4ccccc4c3n2)c1 [Compound 4l, N-(3-chlorophenyl)benzo[h]quinazolin-2-amine] | 17 |

These compounds were tested on HCT-116 (assay: Cytotoxicity secondary screen (IC50)). Details: Homo sapiens, 48 h exposure, mean of triplicates, NE: no effect.
Format: cell-based
Procedure: as §3, §1, §2

| SMILES | IC50 [µM] |
| --- | --- |
| Clc1cccc(Nc2ncc3ccc4ccccc4c3n2)c1 [Compound 4l, N-(3-chlorophenyl)benzo[h]quinazolin-2-amine] | 24 |

These compounds were tested on MDA468 (assay: Cytotoxicity primary screen (single dose)). Details: single dose 25 μM, 48 h exposure, mean of triplicates; read-out: percentage of cell survival over DMSO control, MDA468.
Format: cell-based
Procedure: as §3, §1, §2
(§4) Table S1: Cytotoxicity studies (single dose at 25µM) of N-arylbenzo[h]quinazolin-2-amines 4a–s
(§5) The toxicity is expressed as the percentage of cell survival (from 100 % to 0 %) over DMSO control after 48 h exposure (mean of triplicates).
(§6) Effect of the solvent (DMSO) was studied at 0.25%.

| SMILES | viability at 25 µM [%] |
| --- | --- |
| Fc1ccc(Nc2ncc3ccc4ccccc4c3n2)cc1 [Compound 4j, N-(4-fluorophenyl)benzo[h]quinazolin-2-amine] | 95 |
| Fc1cc(Nc2ncc3ccc4ccccc4c3n2)cc(F)c1F [Compound 4s, N-(3,4,5-trifluorophenyl)benzo[h]quinazolin-2-amine] | 78 |
| Clc1ccc(Nc2ncc3ccc4ccccc4c3n2)cc1 [Compound 4m, N-(4-chlorophenyl)benzo[h]quinazolin-2-amine] | 88 |
| Fc1cc(Cl)cc(Nc2ncc3ccc4ccccc4c3n2)c1 [Compound 4p, N-(3-chloro-5-fluorophenyl)benzo[h]quinazolin-2-amine] | 72 |
| Fc1ccc(Nc2ncc3ccc4ccccc4c3n2)cc1F [Compound 4n, N-(3,4-difluorophenyl)benzo[h]quinazolin-2-amine] | 85 |
| COc1ccc(Nc2ncc3ccc4ccccc4c3n2)cc1 [Compound 4g, N-(4-methoxyphenyl)benzo[h]quinazolin-2-amine] | 90 |
| Clc1cccc(Nc2ncc3ccc4ccccc4c3n2)c1 [Compound 4l, N-(3-chlorophenyl)benzo[h]quinazolin-2-amine] | 78 |
| Cc1cc(Nc2ncc3ccc4ccccc4c3n2)ccc1Br [Compound 4r, N-(4-bromo-3-methylphenyl)benzo[h]quinazolin-2-amine] | 96 |

Each compound was assayed on PC3 (assay: Cytotoxicity primary screen (single dose)). Details: Homo sapiens, PC-3; single dose 25 μM, 48 h exposure, mean of triplicates; read-out: percentage of cell survival over DMSO control, PC3.
Format: cell-based
Procedure: as §3, §1, §2, §4, §5, §6

| SMILES | viability at 25 µM [%] |
| --- | --- |
| Fc1ccc(Nc2ncc3ccc4ccccc4c3n2)cc1 [Compound 4j, N-(4-fluorophenyl)benzo[h]quinazolin-2-amine] | 78 |
| Fc1cc(Nc2ncc3ccc4ccccc4c3n2)cc(F)c1F [Compound 4s, N-(3,4,5-trifluorophenyl)benzo[h]quinazolin-2-amine] | 50 |
| Clc1ccc(Nc2ncc3ccc4ccccc4c3n2)cc1 [Compound 4m, N-(4-chlorophenyl)benzo[h]quinazolin-2-amine] | 74 |
| Fc1cc(Cl)cc(Nc2ncc3ccc4ccccc4c3n2)c1 [Compound 4p, N-(3-chloro-5-fluorophenyl)benzo[h]quinazolin-2-amine] | 59 |
| Fc1ccc(Nc2ncc3ccc4ccccc4c3n2)cc1F [Compound 4n, N-(3,4-difluorophenyl)benzo[h]quinazolin-2-amine] | 82 |
| COc1ccc(Nc2ncc3ccc4ccccc4c3n2)cc1 [Compound 4g, N-(4-methoxyphenyl)benzo[h]quinazolin-2-amine] | 82 |
| Clc1cccc(Nc2ncc3ccc4ccccc4c3n2)c1 [Compound 4l, N-(3-chlorophenyl)benzo[h]quinazolin-2-amine] | 59 |
| Cc1cc(Nc2ncc3ccc4ccccc4c3n2)ccc1Br [Compound 4r, N-(4-bromo-3-methylphenyl)benzo[h]quinazolin-2-amine] | 89 |

What follows are compounds tested on MDA231 (assay: Cytotoxicity primary screen (single dose)). Details: Homo sapiens, MDA-MB-231; single dose 25 μM, 48 h exposure, mean of triplicates; read-out: percentage of cell survival over DMSO control, MDA231.
Format: cell-based
Procedure: as §3, §1, §2, §4, §5, §6

| SMILES | viability at 25 µM [%] |
| --- | --- |
| Fc1ccc(Nc2ncc3ccc4ccccc4c3n2)cc1 [Compound 4j, N-(4-fluorophenyl)benzo[h]quinazolin-2-amine] | 91 |
| Fc1cc(Nc2ncc3ccc4ccccc4c3n2)cc(F)c1F [Compound 4s, N-(3,4,5-trifluorophenyl)benzo[h]quinazolin-2-amine] | 78 |
| Clc1ccc(Nc2ncc3ccc4ccccc4c3n2)cc1 [Compound 4m, N-(4-chlorophenyl)benzo[h]quinazolin-2-amine] | 83 |
| Fc1cc(Cl)cc(Nc2ncc3ccc4ccccc4c3n2)c1 [Compound 4p, N-(3-chloro-5-fluorophenyl)benzo[h]quinazolin-2-amine] | 68 |
| Fc1ccc(Nc2ncc3ccc4ccccc4c3n2)cc1F [Compound 4n, N-(3,4-difluorophenyl)benzo[h]quinazolin-2-amine] | 91 |
| COc1ccc(Nc2ncc3ccc4ccccc4c3n2)cc1 [Compound 4g, N-(4-methoxyphenyl)benzo[h]quinazolin-2-amine] | 87 |
| Clc1cccc(Nc2ncc3ccc4ccccc4c3n2)c1 [Compound 4l, N-(3-chlorophenyl)benzo[h]quinazolin-2-amine] | 67 |
| Cc1cc(Nc2ncc3ccc4ccccc4c3n2)ccc1Br [Compound 4r, N-(4-bromo-3-methylphenyl)benzo[h]quinazolin-2-amine] | 101 |

These compounds were tested on HCT116 (assay: Cytotoxicity primary screen (single dose)). Details: Homo sapiens, HCT-116; single dose 25 μM, 48 h exposure, mean of triplicates; read-out: percentage of cell survival over DMSO control, HCT116.
Format: cell-based
Procedure: as §3, §1, §2, §4, §5, §6

| SMILES | viability at 25 µM [%] |
| --- | --- |
| Fc1ccc(Nc2ncc3ccc4ccccc4c3n2)cc1 [Compound 4j, N-(4-fluorophenyl)benzo[h]quinazolin-2-amine] | 81 |
| Fc1cc(Nc2ncc3ccc4ccccc4c3n2)cc(F)c1F [Compound 4s, N-(3,4,5-trifluorophenyl)benzo[h]quinazolin-2-amine] | 63 |
| Clc1ccc(Nc2ncc3ccc4ccccc4c3n2)cc1 [Compound 4m, N-(4-chlorophenyl)benzo[h]quinazolin-2-amine] | 68 |
| Fc1cc(Cl)cc(Nc2ncc3ccc4ccccc4c3n2)c1 [Compound 4p, N-(3-chloro-5-fluorophenyl)benzo[h]quinazolin-2-amine] | 17 |
| Fc1ccc(Nc2ncc3ccc4ccccc4c3n2)cc1F [Compound 4n, N-(3,4-difluorophenyl)benzo[h]quinazolin-2-amine] | 82 |
| COc1ccc(Nc2ncc3ccc4ccccc4c3n2)cc1 [Compound 4g, N-(4-methoxyphenyl)benzo[h]quinazolin-2-amine] | 72 |
| Clc1cccc(Nc2ncc3ccc4ccccc4c3n2)c1 [Compound 4l, N-(3-chlorophenyl)benzo[h]quinazolin-2-amine] | 56 |
| Cc1cc(Nc2ncc3ccc4ccccc4c3n2)ccc1Br [Compound 4r, N-(4-bromo-3-methylphenyl)benzo[h]quinazolin-2-amine] | 100 |

Each compound was assayed on MCF7 (assay: Cytotoxicity primary screen (single dose)). Details: Homo sapiens, single dose 25 μM, 48 h exposure, mean of triplicates, read-out: percentage of cell survival over DMSO control, MCF7.
Format: cell-based
Procedure: as §3, §1, §2, §4, §5, §6

| SMILES | viability at 25 µM [%] |
| --- | --- |
| Fc1ccc(Nc2ncc3ccc4ccccc4c3n2)cc1 [Compound 4j, N-(4-fluorophenyl)benzo[h]quinazolin-2-amine] | 81 |
| Fc1cc(Nc2ncc3ccc4ccccc4c3n2)cc(F)c1F [Compound 4s, N-(3,4,5-trifluorophenyl)benzo[h]quinazolin-2-amine] | 54 |
| Clc1ccc(Nc2ncc3ccc4ccccc4c3n2)cc1 [Compound 4m, N-(4-chlorophenyl)benzo[h]quinazolin-2-amine] | 88 |
| Fc1cc(Cl)cc(Nc2ncc3ccc4ccccc4c3n2)c1 [Compound 4p, N-(3-chloro-5-fluorophenyl)benzo[h]quinazolin-2-amine] | 91 |
| Fc1ccc(Nc2ncc3ccc4ccccc4c3n2)cc1F [Compound 4n, N-(3,4-difluorophenyl)benzo[h]quinazolin-2-amine] | 97 |
| COc1ccc(Nc2ncc3ccc4ccccc4c3n2)cc1 [Compound 4g, N-(4-methoxyphenyl)benzo[h]quinazolin-2-amine] | 83 |
| Clc1cccc(Nc2ncc3ccc4ccccc4c3n2)c1 [Compound 4l, N-(3-chlorophenyl)benzo[h]quinazolin-2-amine] | 68 |
| Cc1cc(Nc2ncc3ccc4ccccc4c3n2)ccc1Br [Compound 4r, N-(4-bromo-3-methylphenyl)benzo[h]quinazolin-2-amine] | 85 |

What follows are compounds tested on MDA-MB-231 (assay: Cytotoxicity secondary screen (IC50)). Details: Homo sapiens, 48 h exposure, mean of triplicates, NE: no effect.
Format: cell-based

| SMILES | IC50 [µM] |
| --- | --- |
| Clc1cccc(Nc2ncc3ccc4ccccc4c3n2)c1 [Compound 4l, N-(3-chlorophenyl)benzo[h]quinazolin-2-amine] | > 25 |

Each compound was assayed on HuH7 (assay: Cytotoxicity primary screen (single dose)). Details: Homo sapiens, Huh-7; single dose 25 μM, 48 h exposure, mean of triplicates; read-out: percentage of cell survival over DMSO control, HuH7.
Format: cell-based
Procedure: as §3, §1, §2, §4, §5, §6

| SMILES | viability at 25 µM [%] |
| --- | --- |
| Fc1ccc(Nc2ncc3ccc4ccccc4c3n2)cc1 [Compound 4j, N-(4-fluorophenyl)benzo[h]quinazolin-2-amine] | 92 |
| Fc1cc(Nc2ncc3ccc4ccccc4c3n2)cc(F)c1F [Compound 4s, N-(3,4,5-trifluorophenyl)benzo[h]quinazolin-2-amine] | 77 |
| Clc1ccc(Nc2ncc3ccc4ccccc4c3n2)cc1 [Compound 4m, N-(4-chlorophenyl)benzo[h]quinazolin-2-amine] | 96 |
| Fc1cc(Cl)cc(Nc2ncc3ccc4ccccc4c3n2)c1 [Compound 4p, N-(3-chloro-5-fluorophenyl)benzo[h]quinazolin-2-amine] | 80 |
| Fc1ccc(Nc2ncc3ccc4ccccc4c3n2)cc1F [Compound 4n, N-(3,4-difluorophenyl)benzo[h]quinazolin-2-amine] | 79 |
| COc1ccc(Nc2ncc3ccc4ccccc4c3n2)cc1 [Compound 4g, N-(4-methoxyphenyl)benzo[h]quinazolin-2-amine] | 79 |
| Clc1cccc(Nc2ncc3ccc4ccccc4c3n2)c1 [Compound 4l, N-(3-chlorophenyl)benzo[h]quinazolin-2-amine] | 71 |
| Cc1cc(Nc2ncc3ccc4ccccc4c3n2)ccc1Br [Compound 4r, N-(4-bromo-3-methylphenyl)benzo[h]quinazolin-2-amine] | 80 |

The compounds below were run on Caco-2 (assay: Cytotoxicity primary screen (single dose)). Details: single dose 25 μM, 48 h exposure, mean of triplicates.
Format: cell-based
Procedure: as §3, §1, §2, §4, §5, §6

| SMILES | percentage of cell survival over DMSO control, CaCo-2 [%] |
| --- | --- |
| Fc1ccc(Nc2ncc3ccc4ccccc4c3n2)cc1 [Compound 4j, N-(4-fluorophenyl)benzo[h]quinazolin-2-amine] | 77 |
| Fc1cc(Nc2ncc3ccc4ccccc4c3n2)cc(F)c1F [Compound 4s, N-(3,4,5-trifluorophenyl)benzo[h]quinazolin-2-amine] | 65 |
| Clc1ccc(Nc2ncc3ccc4ccccc4c3n2)cc1 [Compound 4m, N-(4-chlorophenyl)benzo[h]quinazolin-2-amine] | 75 |
| Fc1cc(Cl)cc(Nc2ncc3ccc4ccccc4c3n2)c1 [Compound 4p, N-(3-chloro-5-fluorophenyl)benzo[h]quinazolin-2-amine] | 54 |
| Fc1ccc(Nc2ncc3ccc4ccccc4c3n2)cc1F [Compound 4n, N-(3,4-difluorophenyl)benzo[h]quinazolin-2-amine] | 72 |
| COc1ccc(Nc2ncc3ccc4ccccc4c3n2)cc1 [Compound 4g, N-(4-methoxyphenyl)benzo[h]quinazolin-2-amine] | 81 |
| Clc1cccc(Nc2ncc3ccc4ccccc4c3n2)c1 [Compound 4l, N-(3-chlorophenyl)benzo[h]quinazolin-2-amine] | 38 |
| Cc1cc(Nc2ncc3ccc4ccccc4c3n2)ccc1Br [Compound 4r, N-(4-bromo-3-methylphenyl)benzo[h]quinazolin-2-amine] | 76 |

Each compound was assayed on MDA-MB-468 (assay: Cytotoxicity secondary screen (IC50)). Details: Homo sapiens, 48 h exposure, mean of triplicates, NE: no effect.
Format: cell-based

| SMILES | IC50 [µM] |
| --- | --- |
| Clc1cccc(Nc2ncc3ccc4ccccc4c3n2)c1 [Compound 4l, N-(3-chlorophenyl)benzo[h]quinazolin-2-amine] | 26 |
